# Measurements reported in patent US10933030B2, “Use of paeonol for inhibiting angiogenesis or for enhancing radiosensitization” (priority 2005, dated 2021).
# Assays:
# [1] = system: B16BL6 melanoma cells; test: Tumor growth, paeonol in combination with 5-FU; format: in vivo; settings: 5-FU 70 mg/kg i.p. at day 3 and 6; paeonol 1 mg per mouse oral twice a day for 21 days
# Procedure: Synergy effect of paeonol in combination with anti-cancer drug, 5-fluorouracil (5-FU) was investigated. For the induction of primary tumor, B16BL6 melanoma cells (1×10^6) suspended in 0.2 ml of PBS were subcutaneously injected into C57BL6 female mice (SLC Co., Japan; 6 week-old, 20-25 g of body weight) adapted for 1 week. […] The size of tumor was measured once per 1-2 days for 21 days after injecting cancer cells and then the volume of tumor was calculated in accordance with the following equation, (width)^2×(length)×0.52.
# [2] = system: B16BL6 melanoma cells; test: Lifetime elongation, paeonol in combination with 5-FU; format: in vivo, mouse; settings: after 22 days, n=7
# Procedure: Effects of paeonol on lifetime elongation of tumor-induced mice were investigated.
# (§1) For the induction of primary tumor, B16BL6 melanoma cells (1×10^6) suspended in 0.2 ml of PBS were subcutaneously injected into C57BL6 female mice (SLC Co., Japan; 6 week-old, 20-25 g of body weight) adapted for 1 week.
# In 5-FU & paeonol treated group, 70 mg/kg per mouse of 5-FU was intraperitoneally injected at 3 day and 6 day after injecting cancer cells, and 1 mg per mouse of paeonol dissolved in 0.2 ml of 20% ethanol was orally administrated twice a day for 21 days after injecting cancer cells. In 5-FU treated group, 70 mg/kg per mouse of 5-FU was treated in the same manner as 5-FU & paeonol treated group. In the other hand, 0.2 ml of 20% ethanol was also orally administrated into control group and 5-FU treated group in the same manner as 5-FU & paeonol treated group.
# [3] = system: human uterine carcinoma cell (HeLa); test: Cytotoxicity test by MTT assay, uterine carcinoma cell; format: cell-based
# Procedure: (§2) In order to examine the cytotoxicity of paeonol, 2×10^5 of normal human lung cell (BEAS-2B), human lung carcinoma cell (NCI-H460), human uterine carcinoma cell (HeLa) were treated with various concentrations (0.25, 0.5, 1, 2, 10 μg/ml) of paeonol for 24 hours, and then viabilities of each cells were measured by MTT assay.
# [4] = system: mouse lung carcinoma cell line, LLC (Lewis lung carcinoma); test: Radiosensitization in LLC-transplanted mice, survival; format: in vivo; settings: for survival of mice: 5 mg/kg oral
# Procedure: Effect of treatment of paeonol during radiation into lung carcinoma cell line-transplanted animal on radiosensitization was investigated.
# 1×10^6 of mouse lung carcinoma cell line, LLC (Lewis lung carcinoma) cell were suspended in 0.2 ml of PBS, and then were injected into left leg of mouse in order to induce the tumor. LLC-transplanted mice were classified into 4 groups such as control group (n=10), irradiation-treated group (n=10), paeonol-treated group (n=10), and irradiation & paeonol-treated group (n=10).
# After the volumes of tumor were about 100-200 mm^3 (6-7 day after LLC injection), 5 Gy of ^60Co radiation was irradiated to irradiation-treated group and irradiation & paeonol-treated group three times at an interval of 2 or 3 days.
# After the existence of tumor was detected by touching with hand (4 day after LLC injection), 5 mg/kg of paeonol dissolved in 20% ethanol was orally administered into paeonol-treated group and irradiation & paeonol group once a day for 20 days. For control group and irradiation group, 20% ethanol was orally administered in the same manner as paeonol-treated group.
# Enhancing effects of paeonol in combination with radiation on efficacy of radiotherapy was determined by comparing both tumor growth rates and mouse survival rates of 4 groups with each other groups.
# [5] = system: B16BL6 melanoma cells; test: Tumor metastasis into lung after intravenous injection of melanoma cells; format: in vivo, mouse
# Procedure: Inhibitory effects of the present composition comprising paeonol on tumor metastasis in tumor-induced mice were investigated. […] 0.25 mg of the above isolated paeonol was dissolved in 0.2 ml of 20% ethanol, and then 0.25 mg per mouse of paeonol (0.5 mg/day) was orally administrated into the treated group (n=6) twice a day for 14 days after injecting cancer cells. In the other hand, 0.2 ml of 20% ethanol was also orally administrated into the control group (n=6) in the same manner as treated group. After 14 days, mice were dissected, and then the numbers of colonies, which metastasized into lung, were counted.
# [6] = system: B16BL6 melanoma cells; test: Radiosensitization in melanoma-transplanted mice, tumor volume; format: in vivo, mouse; settings: for decrease of tumor volume compared with control group: paeonol-treated group, no irradiation
# Procedure: Effect of treatment of paeonol during radiation into melanoma-transplanted animal on radiosensitization was investigated. In order to induce primary tumor, B16BL6 melanoma cells (1×10^6) suspended in 0.2 ml of PBS was subcutaneously injected into C57BL6 female mice (SLC Co., Japan; 6 week-old […]) adapted for 1 week. Melanoma-transplanted mice were classified into 6 groups: control group (n=10), irradiation group (n=10), paeonol-treated groups (0.5 or 1 mg/kg per day) (n=10), and irradiation & paeonol-treated groups (0.5 or 1 mg/kg per day) (n=10), and then it was observed whether the combinational treatment of irradiation and paeonol enhances the radiosensitization of melanoma-transplanted animal. […] For control group and irradiation group, 20% ethanol was orally administered in the same manner as paeonol-treated group. The sizes (width, length) of tumor were measured for 30 days at an interval of 2 or 3 days, and then the volumes of tumor were calculated by the following equation, (width)^2×(length)×0.52.
# [7] = system: uterine carcinoma cell line HeLa; test: Radiosensitization, clone formation of uterine carcinoma cell line HeLa; format: cell-based, human
# Procedure: […] At 7 day after irradiation, the clone formation (%) of each groups were measured and then the survival rates of each groups were compared with each other.
# [8] = system: B16BL6 melanoma cells; test: Lifetime elongation of tumor-induced mice; format: in vivo, mouse; settings: after 22 days; oral 1 mg/day; n=7
# Procedure: Effects of the present composition comprising paeonol on lifetime elongation of tumor-induced mice were investigated.
# as §1
# 0.5 mg of the above isolated paeonol was dissolved in 0.2 ml of 20% ethanol, and then 0.5 mg per mouse of paeonol (1 mg/day) was orally administrated into the treated group (n=7) twice a day for 22 days after injecting cancer cells. In the other hand, 0.2 ml of 20% ethanol was also orally administrated into the control group (n=7) in the same manner as treated group.
# [9] = system: angiogenesis; test: Mouse Matrigel model of angiogenesis (hemoglobin in Matrigel); format: in vivo; settings: oral 0.5 mg per mouse twice a day (1 mg/day) for 4 days
# Procedure: Effects of oral administration of paeonol on angiogenesis were quantitatively investigated in mouse Matrigel model. […] 0.5 mg of the above isolated paeonol was dissolved in 0.2 ml of 20% ethanol, and then 0.5 mg per mouse of paeonol (1 mg/day) was orally administrated into the treated group (n=8) twice a day for 4 days. In the other hand, 0.2 ml of 20% ethanol was also orally administrated into the control group (n=8) in the same manner as treated group. On the fifth day of oral administration, Matrigel was separated from excised skin of each mouse, and the level of hemoglobin in the Matrigel was measured in order to determine the inhibition of angiogenesis quantitatively.
# [10] = system: human lung carcinoma cell (NCI-H460); test: Cytotoxicity test by MTT assay, lung carcinoma cell; format: cell-based
# Procedure: as §2
# [11] = system: B16BL6 melanoma cells; test: Growth of solid tumor in B16BL6 melanoma-injected mice; format: in vivo, mouse; settings: oral 1 mg per day for 17 days; compared with control group
# Procedure: Effects of administering the present composition comprising paeonol on the growth of solid tumor were investigated. For the induction of primary tumor, B16BL6 melanoma cells (1×10^6) suspended in 0.2 ml of PBS ([…]) were subcutaneously injected into C57BL6 female mice (SLC Co., Japan; 6 week-old, 20-25 g of body weight) adapted for 1 week. 0.5 mg of the above isolated paeonol was dissolved in 0.2 ml of 20% ethanol, and then 0.5 mg per mouse of paeonol (1 mg/day) was orally administrated into the treated group (n=7) twice a day for 17 days after injecting cancer cells. In the other hand, 0.2 ml of 20% ethanol was also orally administrated into the control group (n=7) in the same manner as treated group. The size of tumor was measured once per 1-2 days for 17 days after injecting cancer cells and then the volume of tumor was calculated in accordance with the following equation, (width)^2×(length)×0.52.
# [12] = Acute toxicity test in animal; format: in vivo; settings: dosage of 100 mg/kg
# [13] = system: mouse lung carcinoma cell line, LLC (Lewis lung carcinoma); test: Radiosensitization in LLC-transplanted mice, tumor growth rate; format: in vivo; settings: for tumor growth rate went down as compared with control group: 5 mg/kg oral
# Procedure: Effect of treatment of paeonol during radiation into lung carcinoma cell line-transplanted animal on radiosensitization was investigated. 1×10^6 of mouse lung carcinoma cell line, LLC (Lewis lung carcinoma) cell were suspended in 0.2 ml of PBS, and then were injected into left leg of mouse in order to induce the tumor. LLC-transplanted mice were classified into 4 groups such as control group (n=10), irradiation-treated group (n=10), paeonol-treated group (n=10), and irradiation & paeonol-treated group (n=10). […] For control group and irradiation group, 20% ethanol was orally administered in the same manner as paeonol-treated group. […] The sizes (width, length) of tumor were measured for 30 days at an interval of 2 or 3 days, and then the volumes of tumor were calculated by the following equation, (width)^2×(length)×0.52. The tumor growth rates were also calculated by converting into the time which it takes for tumor volume to be 2000 mm^3.
# [14] = system: human lung carcinoma cell line H460; test: Radiosensitization, clone formation of lung carcinoma cell line H460; format: cell-based
# Procedure: […] At 7 day after irradiation, the clone formation (%) of each groups were measured and then the survival rates of each groups were compared with each other. Irradiation with high dose of radiation into cancer cell line prevents clone formation.
# [15] = system: normal human lung cell (BEAS-2B); test: Cytotoxicity test by MTT assay, normal lung cell; format: cell-based
# Procedure: as §2
# [16] = 10 μg/ml of paeonol, 24 hours, MTT
# [17] = Radiation 0 Gy, paeonol 1 μg/ml, 7 day
# [18] = Radiation 0 Gy, paeonol 2 μg/ml, 7 day
# [19] = Radiation 1 Gy, paeonol 2 μg/ml, 7 day after irradiation
# [20] = Radiation 2 Gy, paeonol 1 μg/ml, 7 day after irradiation
# [21] = Radiation 2 Gy, paeonol 2 μg/ml, 7 day after irradiation
# [22] = Radiation 3 Gy, paeonol 1 μg/ml, 7 day after irradiation
# [23] = Radiation 3 Gy, paeonol 2 μg/ml, 7 day after irradiation
smiles,measurement,setting,value
"O=c1[nH]cc(F)c(=O)[nH]1 [Compound 5-FU, 5-fluorouracil]",inhibition of tumor growth compared with control group,[1],50%
same,survival rate,"[2]; 5-FU 70 mg/kg i.p. at day 3 and 6, paeonol 1 mg per mouse oral twice a day",14%
same,number of mice survived,[2],one
COc1ccc(C(C)=O)c(O)c1 [paeonol],cytotoxicity,[3]; [16],15%
same,LD50,[3]; human,did not show enough toxicity to calculate LD50
same,increase of survival rate compared with control group,[4]; irradiation & paeonol-treated group,about 2 times
same,survival of mice,"[4]; irradiation & paeonol-treated group, 5 Gy three times, control 42, irradiation alone 60",78 days
same,survival of mice,"[4]; paeonol-treated group, no irradiation, control 42",69 days
same,colonies metastasized into lung per mouse,"[5]; oral 0.25 mg per mouse twice a day (0.5 mg/day) for 14 days, control 213±60",132±80 colonies
same,inhibition of metastasis into lung,[5]; oral 0.5 mg/day for 14 days,38%
same,"decrease of tumor volume compared with control group, maximum","[6]; irradiation & paeonol-treated groups (0.5 or 1.0 mg/kg), 5 Gy at 4 and 6 day, irradiation alone 33.1%",≤ 58.9%
same,decrease of tumor volume compared with control group,[6]; 0.5 mg/kg oral once a day,6.4%
same,decrease of tumor volume compared with control group,[6]; 1.0 mg/kg oral once a day,9.3%
same,decrease of clone formation compared with control group irradiated with 3 Gy,[7]; 1 μg/ml of paeonol,23%
same,decrease of clone formation compared with control group irradiated with 3 Gy,[7]; 2 μg/ml of paeonol,39%
same,Clone formation (%),[7]; [17],100%
same,Clone formation (%),[7]; [18],100%
same,Clone formation (%),"[7]; Radiation 1 Gy, paeonol 1 μg/ml, 7 day after irradiation",73.4%
same,Clone formation (%),[7]; [19],72.8%
same,Clone formation (%),[7]; [20],45.5%
same,Clone formation (%),[7]; [21],44.7%
same,Clone formation (%),[7]; [22],12.3%
same,Clone formation (%),[7]; [23],10.9%
same,number of mice survived,[8],three
same,survival rate,[8],43%
same,inhibition of angiogenesis,[9],about 67%
same,hemoglobin content of treated group as compared with control group,[9]; Matrigel with bFGF and heparin,33%
same,cytotoxicity,[10]; [16],18%
same,LD50,[10]; human,did not show enough toxicity to calculate LD50
same,inhibition of tumor growth,[11],48%
same,side effects during administration,[12],no side effects
same,tumor growth rate went down as compared with control group,"[13]; irradiation & paeonol-treated group, 5 Gy three times",1.4 fold
same,Tumor growth rate (Time which it takes for tumor volume to be 2000 mm^3),"[13]; irradiation & paeonol-treated group: 5 Gy 60Co three times, paeonol 5 mg/kg oral once a day for 20 days, control 16, irradiation alone 19",22 days
same,Tumor growth rate (Time which it takes for tumor volume to be 2000 mm^3),"[13]; paeonol-treated group, 5 mg/kg oral once a day for 20 days, no irradiation, control 16",19 days
same,tumor growth rate went down as compared with control group,"[13]; paeonol-treated group, no irradiation",1.2 fold
same,decrease of clone formation compared with control group irradiated with 3 Gy,[14]; 1 μg/ml of paeonol,16%
same,decrease of clone formation compared with control group irradiated with 3 Gy,[14]; 2 μg/ml of paeonol,31%
same,Clone formation (%),[14]; [17],100%
same,Clone formation (%),[14]; [18],100%
same,Clone formation (%),[14]; [19],71.1%
same,Clone formation (%),"[14]; Radiation 1 Gy, paeonol 12 μg/ml, 7 day after irradiation",72.5%
same,Clone formation (%),[14]; [20],46.4%
same,Clone formation (%),[14]; [21],43.3%
same,Clone formation (%),[14]; [22],25.8%
same,Clone formation (%),[14]; [23],21.2%
same,cytotoxicity,[15]; [16],6%
same,LD50,[15]; human,did not show enough toxicity to calculate LD50
